How the values were obtained:
Format in all cases: cell-based
[1] = biological target: T1, hNaV1.2 (SCN2A) (Homo sapiens, UniProt Q99250); experiment: Use-dependent inhibition of the CNS Nav1.2 sodium channel; details: use-dependent block, 25 Hz, pulse 20, read-out: Nav1.2 UDB 25 Hz 10 uM
T1 construct: expressed in transfected cells
How it was run: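 Use-dependent block of human Nav1.2 was measured by automated whole-cell patch clamp (QPatch) in HEK-293 cells stably expressing hNaV1.2 with SCN1B and SCN2B. From a holding potential of −120 mV, a train of 20 pulses to 0 mV (20 ms, 25 Hz) was applied. Peak current at pulse 20 was normalized to the first pulse, and percent inhibition was calculated relative to compound-free recordings.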

[2] = biological target: hNav1.1 (SCN1A) (Homo sapiens, UniProt P35498); experiment: Use-dependent inhibition of the CNS Nav1.1 sodium channel; details: use-dependent block, 25 Hz, pulse 20, read-out: Nav1.1 UDB 25 Hz 10 uM
How it was run: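 HEK-293 cells stably expressing WT hNav1.1, automated whole-cell patch clamp at 23-25 °C with CsF-based internal and NaCl external solutions, pH 7.35. Compound applied twice, 200 s equilibration; block measured at pulse 20 of a 25 Hz train (0 mV, 20 ms) from −120 mV, as mean % inhibition versus compound-free.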

[3] = biological target: T2, hNav1.3 (SCN3A) (Homo sapiens, UniProt Q9NY46); experiment: Voltage-dependent inhibition of the Nav1.3 sodium channel; details: voltage-dependent block of peak current, read-out: Nav 1.3-VDB 1 uM
T2 construct: expressed in transfected cells
Description: HEK-293 cells stably expressing wild-type (WT) hNav1.3 (SCN3A NCBI # NP 001075, SCN1B NCBI # NM 001037.4, SCN2B NCBI # NM 004588.2) were used to record INa. Cells are maintained with standard tissue culture procedures and stable channel expression is maintained with 800 ug/mL G418 and 3 ug/mL Puromycin in the culture medium. Unless otherwise noted, all reagents are purchased from Sigma-Aldrich (St Louis, Mo., U.S.A.).
Assays measuring Voltage-Dependent Block (VDB) of Nav1.3 are performed on an automated electrophysiology platform, QPatch 16X or QPatch HT (Sophion Bioscience, Copenhagen, Denmark), using the whole cell patch clamp technique to measure currents through the cell membrane. Series resistance compensation is set to 100% and series resistance and whole-cell compensation are performed automatically. Currents stored in the Sophion Bioscience Oracle database (Sophion Bioscience, Copenhagen, Denmark). Analysis is performed using QPatch Assay software and data are compiled in Excel 2010 (Microsoft, Seattle, Wash., U.S.A.).
The internal (pipette) solution consists of (in mM) 105 CsF, 10 NaF, 20 CsCl, 2 EGTA, 10 HEPES, 10 Dextrose with a pH of 7.35 and osmolarity of 300 mOsmol/kg. The external (bath) solution contains in (mM): 80 NaCl, 60 Choline-Cl, 4 KCl, 1.8 CaCl2, 1 MgCl2, 10 dextrose, 10 HEPES, with a pH of 7.35 and osmolarity of 310 mOsmol/kg. Experiments are carried out at 23-25° C.
Compound stocks are routinely made by the Gilead Sample Bank in vials to 10 mM in dimethyl sulfoxide (DMSO). In some cases, when compounds are not soluble in DMSO, they are made in 100% ethanol. Stocks are sonicated as necessary. Compounds are diluted in extracellular solution using a MicroLab Nimbus (Hamilton Robotics, Reno, Nev.) to 1 μM in glass vials and transferred to glass well plates before robotic addition to the cells.
Cells are allowed to stabilize for 10 min after establishment of the whole-cell configuration before current is measured. The test compound is applied 3 times at 120 second intervals to allow for equilibration. Currents were leak subtracted using a P/4 procedure, low-pass Bessel filtered at 5 kHz and digitized at 25 kHz. Results are presented as mean percentage inhibition.
Voltage-dependent block of Nav1.3 peak current was measured during a voltage step to 0 mV (20 ms) following a voltage step pre-conditioning steps (−55 mV for 10 sec followed by −120 mV for 10 ms). The holding potential was −120 mV and this voltage protocol induces half maximal inactivation of Nav1.3. The voltage protocol for VDB was performed every 45 seconds in the absence and presence of compound and percentage inhibition was calculated with respect to the compound free condition.

T2 sequence (Q9NY46 1-1951 isoform Q9NY46-2): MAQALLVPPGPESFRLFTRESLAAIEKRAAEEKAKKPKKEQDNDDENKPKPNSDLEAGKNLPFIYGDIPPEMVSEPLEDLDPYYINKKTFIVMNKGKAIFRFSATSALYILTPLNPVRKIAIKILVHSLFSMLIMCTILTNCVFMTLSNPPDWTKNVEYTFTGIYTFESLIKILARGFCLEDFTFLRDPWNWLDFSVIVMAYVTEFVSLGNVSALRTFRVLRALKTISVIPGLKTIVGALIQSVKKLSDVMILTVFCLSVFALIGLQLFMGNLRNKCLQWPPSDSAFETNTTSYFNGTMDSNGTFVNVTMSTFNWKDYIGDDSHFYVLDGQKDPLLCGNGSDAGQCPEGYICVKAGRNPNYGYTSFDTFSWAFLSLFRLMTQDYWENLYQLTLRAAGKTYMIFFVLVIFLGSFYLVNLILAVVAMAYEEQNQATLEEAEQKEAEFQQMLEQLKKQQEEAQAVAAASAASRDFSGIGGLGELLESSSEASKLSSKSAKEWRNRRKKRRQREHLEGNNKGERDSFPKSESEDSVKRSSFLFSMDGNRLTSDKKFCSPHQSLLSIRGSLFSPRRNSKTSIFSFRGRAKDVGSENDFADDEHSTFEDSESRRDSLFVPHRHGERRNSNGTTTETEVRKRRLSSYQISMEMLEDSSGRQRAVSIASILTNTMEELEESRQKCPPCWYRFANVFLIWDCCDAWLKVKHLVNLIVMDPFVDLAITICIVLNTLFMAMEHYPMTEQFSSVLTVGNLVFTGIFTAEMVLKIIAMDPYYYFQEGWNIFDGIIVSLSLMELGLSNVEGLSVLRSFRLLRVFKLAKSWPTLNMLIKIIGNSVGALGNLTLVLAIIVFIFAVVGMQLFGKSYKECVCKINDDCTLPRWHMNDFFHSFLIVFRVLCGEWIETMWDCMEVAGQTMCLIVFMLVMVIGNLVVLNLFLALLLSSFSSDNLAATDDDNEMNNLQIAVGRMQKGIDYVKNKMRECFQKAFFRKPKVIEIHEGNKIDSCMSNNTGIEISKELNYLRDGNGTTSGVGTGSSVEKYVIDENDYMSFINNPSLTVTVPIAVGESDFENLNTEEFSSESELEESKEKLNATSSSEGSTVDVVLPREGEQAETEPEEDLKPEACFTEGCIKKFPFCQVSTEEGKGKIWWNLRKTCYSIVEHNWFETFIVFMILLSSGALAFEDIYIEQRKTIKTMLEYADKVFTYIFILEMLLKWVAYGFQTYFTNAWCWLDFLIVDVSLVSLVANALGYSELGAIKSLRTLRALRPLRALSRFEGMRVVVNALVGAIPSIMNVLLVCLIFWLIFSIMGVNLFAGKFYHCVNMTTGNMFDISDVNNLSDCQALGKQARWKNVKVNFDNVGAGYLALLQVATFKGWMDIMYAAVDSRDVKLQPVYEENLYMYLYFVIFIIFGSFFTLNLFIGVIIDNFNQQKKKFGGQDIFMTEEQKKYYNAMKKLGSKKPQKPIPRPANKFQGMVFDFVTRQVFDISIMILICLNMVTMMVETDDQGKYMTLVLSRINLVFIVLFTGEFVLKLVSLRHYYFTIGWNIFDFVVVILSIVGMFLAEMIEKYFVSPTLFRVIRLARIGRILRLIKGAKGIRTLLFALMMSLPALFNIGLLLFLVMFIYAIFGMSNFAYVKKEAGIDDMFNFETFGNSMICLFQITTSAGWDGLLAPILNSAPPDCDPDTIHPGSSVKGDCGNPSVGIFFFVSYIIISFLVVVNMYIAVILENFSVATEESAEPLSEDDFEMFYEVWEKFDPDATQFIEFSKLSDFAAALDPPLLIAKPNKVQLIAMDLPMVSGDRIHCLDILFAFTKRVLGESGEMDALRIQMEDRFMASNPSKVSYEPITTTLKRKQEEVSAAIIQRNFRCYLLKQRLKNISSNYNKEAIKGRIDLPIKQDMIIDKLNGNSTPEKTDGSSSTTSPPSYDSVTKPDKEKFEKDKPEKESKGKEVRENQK
T2 sequence (Q07699 19-218 partner): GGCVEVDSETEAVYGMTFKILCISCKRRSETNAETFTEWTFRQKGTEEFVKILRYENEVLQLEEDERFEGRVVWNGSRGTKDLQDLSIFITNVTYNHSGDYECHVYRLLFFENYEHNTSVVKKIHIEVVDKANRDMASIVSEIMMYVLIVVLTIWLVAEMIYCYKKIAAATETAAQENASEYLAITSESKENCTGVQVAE
T2 sequence (O60939 30-215 partner): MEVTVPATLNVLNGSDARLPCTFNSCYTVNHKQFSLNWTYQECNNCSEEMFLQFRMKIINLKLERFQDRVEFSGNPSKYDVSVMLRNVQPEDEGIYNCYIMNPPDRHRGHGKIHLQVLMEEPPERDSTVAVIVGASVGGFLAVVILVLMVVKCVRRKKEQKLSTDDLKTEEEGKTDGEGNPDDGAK
T1 sequence (Q99250 whole entry): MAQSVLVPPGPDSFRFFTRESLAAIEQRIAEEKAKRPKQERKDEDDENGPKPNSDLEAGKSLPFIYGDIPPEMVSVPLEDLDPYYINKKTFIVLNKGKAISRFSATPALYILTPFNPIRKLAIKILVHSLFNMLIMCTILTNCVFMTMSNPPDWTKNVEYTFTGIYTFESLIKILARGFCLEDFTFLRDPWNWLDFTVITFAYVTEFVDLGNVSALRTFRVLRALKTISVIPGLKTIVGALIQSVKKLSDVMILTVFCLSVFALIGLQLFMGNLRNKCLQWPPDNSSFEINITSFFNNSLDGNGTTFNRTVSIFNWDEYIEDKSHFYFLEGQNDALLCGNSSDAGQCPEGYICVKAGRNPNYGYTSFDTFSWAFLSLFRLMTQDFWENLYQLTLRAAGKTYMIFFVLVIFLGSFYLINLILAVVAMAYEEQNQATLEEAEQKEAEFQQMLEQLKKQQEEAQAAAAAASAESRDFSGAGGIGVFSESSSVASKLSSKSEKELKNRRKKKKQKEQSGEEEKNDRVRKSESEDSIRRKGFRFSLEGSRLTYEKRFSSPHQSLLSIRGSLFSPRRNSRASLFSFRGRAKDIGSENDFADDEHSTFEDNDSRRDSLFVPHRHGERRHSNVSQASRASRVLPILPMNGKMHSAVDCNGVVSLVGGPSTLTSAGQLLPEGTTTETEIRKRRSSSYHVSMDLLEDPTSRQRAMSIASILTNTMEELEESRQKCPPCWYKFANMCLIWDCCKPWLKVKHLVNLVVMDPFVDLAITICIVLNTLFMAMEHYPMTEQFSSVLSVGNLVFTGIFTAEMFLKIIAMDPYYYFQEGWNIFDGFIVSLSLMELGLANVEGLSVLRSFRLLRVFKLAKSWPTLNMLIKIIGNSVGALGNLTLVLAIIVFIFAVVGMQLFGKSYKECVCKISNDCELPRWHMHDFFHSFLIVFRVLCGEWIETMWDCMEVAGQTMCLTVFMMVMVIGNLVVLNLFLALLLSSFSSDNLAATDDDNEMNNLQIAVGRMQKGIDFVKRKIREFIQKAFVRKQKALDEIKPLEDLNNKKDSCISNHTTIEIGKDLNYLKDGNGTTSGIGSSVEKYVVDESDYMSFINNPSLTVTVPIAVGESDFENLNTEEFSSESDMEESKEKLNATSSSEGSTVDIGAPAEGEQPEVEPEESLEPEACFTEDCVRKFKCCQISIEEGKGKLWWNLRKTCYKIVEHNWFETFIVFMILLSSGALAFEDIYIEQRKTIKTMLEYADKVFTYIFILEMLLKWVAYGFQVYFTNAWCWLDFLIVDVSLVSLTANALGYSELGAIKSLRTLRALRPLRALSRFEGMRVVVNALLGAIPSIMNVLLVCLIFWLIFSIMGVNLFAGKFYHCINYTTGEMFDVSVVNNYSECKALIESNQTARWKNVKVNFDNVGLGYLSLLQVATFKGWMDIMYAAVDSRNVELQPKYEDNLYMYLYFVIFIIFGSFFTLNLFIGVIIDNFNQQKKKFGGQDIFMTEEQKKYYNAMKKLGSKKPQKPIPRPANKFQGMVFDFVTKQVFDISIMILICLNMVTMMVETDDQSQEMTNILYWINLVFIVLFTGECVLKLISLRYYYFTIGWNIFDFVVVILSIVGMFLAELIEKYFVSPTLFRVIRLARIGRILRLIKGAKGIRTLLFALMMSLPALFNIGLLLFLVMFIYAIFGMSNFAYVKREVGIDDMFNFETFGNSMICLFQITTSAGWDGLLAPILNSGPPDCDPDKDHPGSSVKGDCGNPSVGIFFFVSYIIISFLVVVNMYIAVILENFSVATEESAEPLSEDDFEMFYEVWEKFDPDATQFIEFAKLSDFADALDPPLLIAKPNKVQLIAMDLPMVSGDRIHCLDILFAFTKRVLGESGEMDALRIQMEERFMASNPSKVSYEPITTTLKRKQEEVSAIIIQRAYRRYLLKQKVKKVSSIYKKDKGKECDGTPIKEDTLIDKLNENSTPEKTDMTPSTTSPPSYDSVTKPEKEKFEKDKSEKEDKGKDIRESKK
T1 sequence (Q07699 19-218 partner): as the sequence (Q07699 19-218 partner) above
T1 sequence (O60939 30-215 partner): as the sequence (O60939 30-215 partner) above

SMILES: FC(F)(F)Oc1ccc(-c2ccc3onc(OCc4cn5ccccc5n4)c3c2)cc1 [Example 51, 3-(imidazo[1,2-a]pyridin-2-ylmethoxy)-5-(4-(trifluoromethoxy)phenyl)benzo[d]isoxazole]
- inhibition at 10 µM [1]: 15.7%
- inhibition at 10 µM [2]: 30%
- inhibition at 1 µM [3]: 26.6%

SMILES: O=C1CC[C@H](COc2noc3ccc(-c4ccc(OC(F)(F)F)cc4)cc23)N1 [Example 61, (R)-5-(((5-(4-(trifluoromethoxy)phenyl)benzo[d]isoxazol-3-yl)oxy)methyl)pyrrolidin-2-one]
- inhibition at 10 µM [1]: 31%
- inhibition at 10 µM [2]: 28.7%
- inhibition at 1 µM [3]: 8.6%

SMILES: COc1cc(-c2ccc(C(F)(F)F)cc2F)cc2c(OCc3ncccn3)noc12 [Example 24, 5-(2-fluoro-4-(trifluoromethyl)phenyl)-7-methoxy-3-(pyrimidin-2-ylmethoxy)benzo[d]isoxazole]
- inhibition at 10 µM [1]: < 5%
- inhibition at 10 µM [2]: < 5%
- inhibition at 1 µM [3]: < 5%

SMILES: FC1(F)Oc2ccc(-c3ccc4onc(OCc5ncccn5)c4c3)cc2O1 [Example 30, 5-(2,2-difluorobenzo[d][1,3]dioxol-5-yl)-3-(pyrimidin-2-ylmethoxy)benzo[d]isoxazole]
- inhibition at 10 µM [1]: < 5%
- inhibition at 10 µM [2]: < 5%
- inhibition at 1 µM [3]: 21.5%

SMILES: Cc1cc(OC(F)(F)F)ccc1-c1cc2c(OCc3ncccn3)noc2cc1C [Example 29, 6-methyl-5-(2-methyl-4-(trifluoromethoxy)phenyl)-3-(pyrimidin-2-ylmethoxy)benzo[d]isoxazole]
- inhibition at 10 µM [1]: < 5%
- inhibition at 10 µM [2]: < 5%
- inhibition at 1 µM [3]: 39.5%

SMILES: COc1cc(-c2ccc(OC(F)(F)F)cc2C)cc2c(OCc3ncccn3)noc12 [Example 25, 7-methoxy-5-(2-methyl-4-(trifluoromethoxy)phenyl)-3-(pyrimidin-2-ylmethoxy)benzo[d]isoxazole]
- inhibition at 10 µM [1]: < 5%
- inhibition at 10 µM [2]: < 5%
- inhibition at 1 µM [3]: 12.3%

SMILES: FC(F)(F)COc1ccc(-c2ccc3onc(OCc4ncccn4)c3c2)cn1 [Example 21, 3-(pyrimidin-2-ylmethoxy)-5-(6-(2,2,2-trifluoroethoxy)pyridin-3-yl)benzo[d]isoxazole]
- inhibition at 10 µM [1]: < 5%
- inhibition at 10 µM [2]: < 5%
- inhibition at 1 µM [3]: 11.2%

From patent US9416115B2, “Fused heterocyclic compounds as ion channel modulators” (Gilead Sciences, Inc., priority 2013, dated 2016)
